# Laboratory results as given in patent US8273775B2, “Non-steroidal brassinosteroid mimetic” (priority 2006, dated 2012).
# System: gene expression in Col-0 seedling shoots
# Assay: Microarray analysis (ATH1 Affymetrix) after BL or abrasin treatment
# Type: in vivo, Arabidopsis
# Settings: 30 min
# Description: FIG. 14: Clustering of gene expression profiles by QT-clust analysis. Clusters illustrating the major patterns of the data sets. Points: BIK-30: 30 μM abrasin 30 min; BL-30: 1 μM brassinolide 30 min; DMSO-30: control DMSO 30 min; BIK-120: 30 μM abrasin 120 min; BL-120: 1 μM brassinolide 120 min; DMSO-120: control DMSO 120 min.
# Col-0 seeds were germinated vertically on ½ MS medium for 7 days under 16 h light/8 h dark cycles. The seedlings were overlaid with liquid ½ MS medium containing 1 μM brassinolide (BL, Fuji Chemical Industries, Ltd., Toyama, Japan), 30 μM abrasin (BIK, ChemBridge Corporation) and DMSO and treated for 30 and 120 min. The shoot parts were collected for RNA isolation. All sampling points were performed in three independent experiments. RNA was extracted using RNeasy kit (Qiagene). […] total RNA per array was used to hybridise the ATH1 Affymetrix Arabidopsis arrays according to standard procedure. The overrepresentation analyses were performed using BiNGO software (Maere et al., 2005).
# We performed a microarray analysis using the Arabidopsis whole genome chip (Affymetix) to determine whether abrasin activated the expression of BR-inducible genes at transcriptional level. Wild-type Col-0 seedlings were exposed to 1 μM BL, 30 μM ABRASIN and DMSO (mock-treatment) for two time points (30 min and 120 min) and the shoot parts were collected for RNA isolation. The analysis of the variance of the normalized gene expression data took in account the variability parameters affecting the expression level: type of hormone treatment, duration of treatment and the interaction between these two.
structure (smiles),measurement,setting,value
"CC(C)[C@H](C)[C@@H](O)[C@H](O)[C@@H](C)[C@H]1CC[C@H]2[C@@H]3COC(=O)[C@H]4C[C@H](O)[C@H](O)C[C@]4(C)[C@H]3CC[C@]12C [BL, brassinolide, reference compound]",Fold-change AT4G16563 aspartyl protease family protein,,1.44
same,Fold-change AT4G16670 expressed protein,,0.78
same,Fold-change AT4G16780 homeobox-leucine zipper protein 4 (HAT4)/HD-ZIP protein,,0.62
same,Fold-change AT4G17250 expressed protein,,0.86
same,Fold-change AT4G17460 homeobox-leucine zipper protein 1 (HAT1)/HD-ZIP protein 1,,0.54
same,Fold-change AT4G21510 F-box family protein,,1.47
same,Fold-change AT4G23030 MATE efflux protein-related,,1.37
same,Fold-change AT4G23070 rhomboid family protein,,1.02
same,Fold-change AT4G23810 WRKY family transcription factor,,0.71
same,"Fold-change AT4G24160 hydrolase, alpha/beta fold family protein",,1.13
same,Fold-change AT4G25620 hydroxyproline-rich glycoprotein family protein,,0.87
same,Fold-change AT4G25780 pathogenesis-related protein,,0.74
same,Fold-change AT4G27970 C4-dicarboxylate transporter/malic acid transport family protein,,1.20
same,Fold-change AT4G28240 wound-responsive protein-related,,0.77
same,"Fold-change AT4G28490 leucine-rich repeat transmembrane protein kinase, putative",,1.00
same,Fold-change AT4G28703 expressed protein,,0.85
same,Fold-change AT4G28780 GDSL-motif lipase/hydrolase family protein,,1.25
same,Fold-change AT4G29070 expressed protein,,0.90
same,Fold-change AT4G30080 transcriptional factor B3 family protein,,0.94
same,Fold-change AT4G31020 expressed protein,,1.53
same,Fold-change AT4G32280 auxin-responsive AUX/IAA family protein (IAA29),,0.66
same,Fold-change AT4G33050 calmodulin-binding family protein,,0.99
same,Fold-change AT4G33700 CBS domain-containing protein,,0.81
same,Fold-change AT4G34610 homeodomain-containing protein,,0.86
same,Fold-change AT4G36110 auxin-responsive protein,,2.35
same,Fold-change AT4G36780 brassinosteroid signalling positive regulator-related,,0.71
same,Fold-change AT4G37240 expressed protein,,1.23
same,Fold-change AT4G37290 expressed protein,,0.90
same,Fold-change AT4G37590 phototropic-responsive NPH3 family protein,,0.90
same,Fold-change AT4G38840 auxin-responsive protein (SAUR14),,1.26
same,Fold-change AT4G38850 auxin-responsive protein (SAUR-AC1),,1.43
same,Fold-change AT4G38860 auxin-responsive protein (SAUR16),,1.38
same,Fold-change AT4G39400 brassinosteroid insensitive 1 (BRI1),,0.96
same,Fold-change AT5G02020 expressed protein,,0.99
same,Fold-change AT5G05690 cytochrome P450 90A1 (CYP90A1) (CYP90) (CPD),,0.93
same,Fold-change AT5G07690 myb family transcription factor (MYB29),,0.82
same,Fold-change AT5G08130 basic helix-loop-helix (bHLH) family protein (BIM2),,0.79
same,Fold-change AT5G12050 expressed protein,,0.73
same,Fold-change AT5G13180 no apical meristem (NAM) family protein,,1.07
same,Fold-change AT5G13740 sugar transporter family protein,,0.77
same,Fold-change AT5G14730 expressed protein,,0.80
same,Fold-change AT5G16200 50S ribosomal protein-related,,0.70
same,Fold-change AT5G16980 NADP-dependent oxidoreductase,,1.15
same,Fold-change AT5G18750 DNAJ heat shock N-terminal domain-containing protein,,1.03
same,Fold-change AT5G19200 short-chain dehydrogenase/reductase (SDR) family protein,,1.22
same,Fold-change AT5G19340 expressed protein,,0.68
same,Fold-change AT5G24030 C4-dicarboxylate transporter/malic acid transport family protein,,1.43
same,Fold-change AT5G24660 expressed protein,,1.33
same,Fold-change AT5G25240 expressed protein,,1.21
same,Fold-change AT5G25930 leucine-rich repeat family protein,,0.98
same,Fold-change AT5G27350 sugar-porter family protein 1 (SFP1),,1.11
same,Fold-change AT5G27670 histone H2A,,0.86
same,Fold-change AT5G38310 expressed protein,,0.98
same,"Fold-change AT5G38990; AT5G39000 [AT5G38990, protein kinase family protein",,0.94
same,Fold-change AT5G39050 transferase family protein,,1.35
same,Fold-change AT5G39610 no apical meristem (NAM) family protein,,0.65
same,Fold-change AT5G39970 expressed protein,,1.08
same,Fold-change AT5G42830 transferase family protein,,0.87
same,Fold-change AT5G47370 homeobox-leucine zipper protein 2 (HAT2),,0.94
same,Fold-change AT5G48070 putative xyloglucan endotransglycosylase/hydrolase,,1.12
same,Fold-change AT5G48540 33 kDa secretory protein-related,,1.01
same,Fold-change AT5G51550 phosphate-responsive 1 family protein,,0.86
same,"Fold-change AT5G54490 calcium-binding EF-hand protein, putative",,0.37
same,Fold-change AT5G54860 integral membrane transporter family protein,,0.92
same,Fold-change AT5G55970 zinc finger (C3HC4-type RING finger) family protein,,1.03
same,Fold-change AT5G56980 expressed protein,,0.75
same,Fold-change AT5G57190 phosphatidylserine decarboxylase,,1.04
same,Fold-change AT5G57780 expressed protein,,0.41
same,Fold-change AT5G59080 expressed protein,,0.62
same,Fold-change AT5G60200 Dof-type zinc finger domain-containing protein,,0.82
same,Fold-change AT5G60270 lectin protein kinase family protein,,1.03
same,Fold-change AT5G60630 expressed protein,,0.94
same,Fold-change AT5G61600 encodes a member of the ERF (ethylene response factor),,0.46
same,Fold-change AT5G62360 invertase/pectin methylesterase inhibitor family protein,,0.92
same,Fold-change AT5G65310 homeobox-leucine zipper protein 5 (HB-5)/HD-ZIP transcription factor 5,,0.91
same,Fold-change AT5G66420 expressed protein,,1.04
same,Fold-change AT5G66590 allergen V5/Tpx-1-related family protein,,1.21
same,Fold-change AT5G67450 zinc finger (C2H2 type) protein 1 (AZF1),,1.79
same,Fold-change of gene AT4G16140 (proline-rich family protein),"245479_at, Cluster 6",0.83
same,Fold-change of gene AT4G15260 (UDP-glucoronosyl/UDP-glucosyl transferase family protein),"245543_at, Cluster 7",1.01
same,"Fold-change of gene AT5G09440 (phosphate-responsive protein, putative)","245885_at, Cluster 5",0.58
same,Fold-change of gene AT1G77380 (amino acid carrier),"246389_at, Cluster 10",0.94
same,Fold-change of gene AT5G15740 (expressed protein),"246516_at, Cluster 5",0.95
same,Fold-change of gene AT5G65300 (expressed protein),"247177_at, Cluster 5",0.25
same,Fold-change of gene AT5G64890 (expressed protein),"247205_at, Cluster 10",0.97
same,Fold-change of gene AT5G63790 (no apical meristem (NAM) family protein),"247351_at, Cluster 9",0.49
same,Fold-change of gene AT5G62630 (expressed protein),"247444_at, Cluster 7",1.26
same,Fold-change of gene AT5G60850 (Dof-type zinc finger domain-containing protein),"247601_at, Cluster 10",1.09
same,Fold-change of gene AT5G59510 (expressed protein),"247704_at, Cluster 9",0.98
same,Fold-change of gene AT5G58660 (oxidoreductase. 2OG-Fe(II) oxygenase family protein),"247774_at, Cluster 5",1.08
same,Fold-change of gene AT5G54120 (expressed protein),"248190_at, Cluster 5",1.04
same,Fold-change of gene AT5G54130 (calcium-binding EF hand family protein),"248191_at, Cluster 5",1.03
same,Fold-change of gene AT5G52900 (expressed protein),"248282_at, Cluster 6",0.74
same,Fold-change of gene AT5G49100 (expressed protein),"248646_at, Cluster 9",0.70
same,Fold-change of gene AT5G18060 (auxin-responsive protein),"250012_x_at, Cluster 6",0.76
same,Fold-change of gene AT5G09800 (U-box domain-containing protein),"250493_at, Cluster 9",0.80
same,Fold-change of gene AT5G08565 (expressed protein),"250537_at, Cluster 8",1.06
same,Fold-change of gene AT5G03670 (expressed protein),"250907_at, Cluster 5",0.60
same,Fold-change of gene AT5G01740 (expressed protein),"251072_at, Cluster 5",0.53
same,Fold-change of gene AT3G63380 (calcium-transporting ATPase),"251176_at, Cluster 10",0.87
same,Fold-change of gene AT3G60690 (auxin-responsive family protein),"251342_at, Cluster 9",0.87
same,Fold-change of gene AT3G45610 (Dof-type zinc finger domain),"252586_at, Cluster 10",0.90
same,Fold-change of gene AT3G44610 (protein kinase family protein),"252646_at, Cluster 5",1.05
same,Fold-change of gene AT4G34760 (auxin-responsive family protein),"253255_at, Cluster 6",0.81
same,Fold-change of gene AT4G34138 (UDP-glucoronosyl/UDP-glucosyl transferase family protein),"253281_at, Cluster 7",1.17
same,Fold-change of gene AT4G31910 (transferase family protein),"253483_at, Cluster 5",1.15
same,Fold-change of gene AT4G30410 (expressed protein),"253617_at, Cluster 5",0.97
same,Fold-change of gene AT4G30450 (glycine-rich protein),"253629_at, Cluster 5",0.88
same,Fold-change of gene AT4G26200 (1-aminocyclopropane-1-carboxylate synthase),"253999_at, Cluster 9",0.29
same,Fold-change of gene AT4G03400 (auxin-responsive GH3 family protein),"255403_at, Cluster 6",0.59
same,Fold-change of gene AT4G02700 (sulfate transporter),"255443_at, Cluster 7",1.69
same,Fold-change of gene AT1G22190 (AP2 domain-containing transcription factor),"255926_at, Cluster 8",0.83
same,Fold-change of gene AT1G66140 (zinc finger (C2H2 type) family protein),"256528_at, Cluster 6",0.72
same,Fold-change of gene AT3G25655 (expressed protein),"256762_at, Cluster 8",0.98
same,"Fold-change of gene AT3G21420 (oxidoreductase, 2OG-Fe(II) oxygenase family protein)","256818_at, Cluster 7",1.11
same,Fold-change of gene AT3G18280 (protease inhibitor/seed storage/lipid transfer protein),"257066_at, Cluster 5",1.06
same,Fold-change of gene AT1G29440 (auxin-responsive family protein),"257506_at, Cluster 6",0.69
same,"Fold-change of gene AT3G29200 (chorismate mutase, chloroplast (CM1))","257746_at, Cluster 5",0.89
same,Fold-change of gene AT1G13260 (DNA-binding protein RAV1 (RAV1)),"259364_at, Cluster 8",0.61
same,Fold-change of gene AT1G29500 (auxin-responsive protein),"259773_at, Cluster 6",0.79
same,Fold-change of gene AT1G29510 (auxin-responsive protein),"259783_at, Cluster 6",0.77
same,Fold-change of gene AT1G29450 (auxin-responsive protein),"259784_at, Cluster 6",0.75
same,Fold-change of gene AT1G29460 (auxin-responsive protein),"259787_at, Cluster 6",0.75
same,"Fold-change of gene AT1G76690; AT1G76680 ([AT1G76690, 12-oxophytodienoate reductase (OPR2))","259875_s_at, Cluster 7",0.85
same,Fold-change of gene AT1G76620 (expressed protein),"259985_at, Cluster 8",0.94
same,Fold-change of gene AT1G63720 (expressed protein),"260243_at, Cluster 10",0.74
same,Fold-change of gene AT1G48100 (glycoside hydrolase family 28 protein),"260727_at, Cluster 8",1.06
same,Fold-change of gene AT1G12200 (flavin-containing monooxygenase family protein),"261023_at, Cluster 7",1.11
same,Fold-change of gene AT1G12845 (expressed protein),"261203_at, Cluster 6",0.98
same,Fold-change of gene AT1G15550 (gibberellin 3-beta-dioxygenase),"261768_at, Cluster 6",0.77
same,Fold-change of gene AT1G80840 (WRKY family transcription factor),"261892_at, Cluster 9",0.27
same,Fold-change of gene AT1G80080 (leucine-rich repeat family protein),"262040_at, Cluster 6",0.77
same,Fold-change of gene AT1G80130 (expressed protein),"262050_at, Cluster 8",1.04
same,Fold-change of gene AT1G21680 (expressed protein),"262505_at, Cluster 10",1.12
same,Fold-change of gene AT1G34245 (expressed protein),"262543_at, Cluster 6",1.14
same,Fold-change of gene AT1G78460 (SOUL heme-binding family protein),"263126_at, Cluster 7",0.88
same,"Fold-change of gene AT1G78820; AT1G78830 ([AT1G78820, curculin-like (mannose-binding) lectin family protein)","264279_s_at, Cluster 7",0.88
